Data set [1] concerns the target T1, human mGluR4 transiently over-expressed in HEK-293 cells (Homo sapiens, UniProt Q14833).
T1 construct: expressed in transfected cells; host or cells: HEK-293 cells, transient co-transfection by electroporation
Put plainly: Human mGluR4 positive allosteric modulator evaluation using Ca++ functional assay. It counts as cell-based. The conditions noted are these: for EC50: HEK-293 cells co-transfected with hmGluR4 and chimeric G protein, EC10 glutamate, intracellular calcium (Fluo4AM), read-out: mean EC50 of agonist/positive allosteric modulator activity on mGluR4. The essentials:
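Fluo4AM-loaded HEK-293 cells expressing hmGluR4 plus a chimeric G protein were read for intracellular Ca2+ (ex 485, em 525 nm). PAM effect measured as potentiation of EC10 glutamate after a 60 s compound-alone agonist read; EC50 from variable-slope sigmoidal fits of 6–9 doses, duplicates, twice.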

T1 sequence (Q14833 33-912): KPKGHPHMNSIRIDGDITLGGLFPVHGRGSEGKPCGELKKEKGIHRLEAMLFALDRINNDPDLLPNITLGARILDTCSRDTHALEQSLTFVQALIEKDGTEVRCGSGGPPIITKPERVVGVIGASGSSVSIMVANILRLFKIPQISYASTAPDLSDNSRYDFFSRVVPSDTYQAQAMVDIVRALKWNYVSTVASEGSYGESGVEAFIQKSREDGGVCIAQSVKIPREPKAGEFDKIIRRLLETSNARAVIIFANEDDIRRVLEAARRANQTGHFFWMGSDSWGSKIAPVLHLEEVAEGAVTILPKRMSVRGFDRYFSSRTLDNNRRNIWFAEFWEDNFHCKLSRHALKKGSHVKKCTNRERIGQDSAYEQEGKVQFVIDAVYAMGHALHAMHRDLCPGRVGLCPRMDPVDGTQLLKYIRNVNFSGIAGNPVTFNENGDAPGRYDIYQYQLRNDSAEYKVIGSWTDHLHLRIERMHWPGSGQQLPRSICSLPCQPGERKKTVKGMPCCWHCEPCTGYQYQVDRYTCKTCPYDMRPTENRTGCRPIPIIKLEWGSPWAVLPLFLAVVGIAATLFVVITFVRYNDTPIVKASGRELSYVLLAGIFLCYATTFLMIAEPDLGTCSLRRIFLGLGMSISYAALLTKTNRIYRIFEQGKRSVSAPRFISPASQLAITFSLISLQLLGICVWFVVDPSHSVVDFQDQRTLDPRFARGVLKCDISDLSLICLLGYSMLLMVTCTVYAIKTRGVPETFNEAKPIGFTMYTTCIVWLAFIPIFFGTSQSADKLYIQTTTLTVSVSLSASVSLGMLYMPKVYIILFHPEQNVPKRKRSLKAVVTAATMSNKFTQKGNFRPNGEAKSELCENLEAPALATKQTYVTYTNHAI

In general, melting point refers to the temperature, or range, at which the solid turns liquid. `COc1ccc2c(=NO)cc(-c3cc4ccccc4cn3)oc2c1` (mixture of isomers) [Example 56, 2-isoquinolin-3-yl-7-methoxy-chromen-4-one oxime] returned a melting point of 246 to 248 °C. In data set [1], the EC50 was < 5 µM.

The molecule `ON=c1cc(-c2cn3cccc3cn2)oc2ccc(OCCc3ccc(F)cc3)cc12` [Example 126, 6-[2-(4-Fluoro-phenyl)-ethoxy]-2-pyrrolo[1,2-a]pyrazin-3-yl-chromen-4-one oxime] showed a melting point of 248 to 250 °C. Further, the EC50 in data set [1] is < 1 µM.

Molecule `C=Cc1ccc2oc(-c3cc4ccccc4cn3)cc(=NO)c2c1` [Example 36, 2-isoquinolin-3-yl-6-(vinyl)-chromen-4-one oxime] came in with a melting point of 198 to 200 °C. Besides, in data set [1], the EC50 was < 5 µM.

Turning to `ON=c1cc(-c2cc3cccn3cn2)oc2ccc(OCCOc3ccccc3)cc12` [Example 160, 6-(2-Phenoxy-ethoxy)-2-pyrrolo[1,2-c]pyrimidin-3-yl-chromen-4-one oxime], the melting point was 210 to 215 °C. Besides, the EC50 in data set [1] was < 1 µM.

Consider `Cl.ON=c1cc(-c2cc3cccn3cn2)oc2ccc(OCCN3CCC(F)(F)C3)cc12` [Example 119, 6-[2-(3,3-difluoro-pyrrolidin-1-yl)-ethoxy]-2-pyrrolo[1,2-c]pyrimidin-3-yl-chromen-4-one oxime, hydrochloride], for which the melting point is > 230 °C (dec.). In addition, the EC50 in data set [1] is < 1 µM.

`Cl.ON=c1cc(-c2cn3cccc3cn2)oc2ccc(OCCN3CCOCC3)cc12` [Example 123, 6-(2-Morpholin-4-yl-ethoxy)-2-(8aH-pyrrolo[1,2-a]pyrazin-3-yl)-chromen-4-one oxime, hydrochloride]: the melting point is > 250 °C (dec.). Further, the EC50 in data set [1] is < 1 µM.

Regarding `Cl.ON=c1cc(-c2cc3cccn3cn2)oc2ccc(OCCN3CCCOCC3)cc12` [Example 117, 6-(2-[1,4]oxazepan-4-yl-ethoxy)-2-pyrrolo[1,2-c]pyrimidin-3-yl-chromen-4-one oxime, hydrochloride], the melting point is 240 °C (dec.). Besides, the EC50 in data set [1] is < 1 µM.

Take `Cl.Cl.ON=c1cc(-c2cc3cccn3cn2)oc2ccc(OCCN3CCC(N4CCCC4)CC3)cc12` [Example 118, 6-[2-(4-pyrrolidin-1-yl-piperidin-1-yl)-ethoxy]-2-pyrrolo[1,2-c]pyrimidin-3-yl-chromen-4-one oxime, dihydrochloride]: the melting point is > 210 °C (dec.). Moreover, the EC50 in data set [1] is < 1 µM.

As to `ON=c1cc(-c2cc3cccn3cn2)oc2ccc(OCCc3cccc(C(F)(F)F)c3)cc12` [Example 141, 2-Pyrrolo[1,2-c]pyrimidin-3-yl-6-[2-(3-trifluoromethyl-phenyl)-ethoxy]-chromen-4-one oxime], the melting point lay within 217 to 218 °C. Further, the EC50 in data set [1] was < 1 µM.

The molecule `N#Cc1ccc2c(=NO)cc(-c3cc4ccccc4cn3)oc2c1` [Example 58, 7-cyano-2-isoquinolin-3-yl-chromen-4-one oxime] had a melting point of 279 to 281 °C. In addition, in data set [1], the EC50 was < 5 µM.

As for `Cl.ON=c1cc(-c2cc3sccc3cn2)oc2ccc(OCCN3CCCC(F)(F)C3)cc12` [Example 131, 6-[2-(3,3-Difluoro-piperidin-1-yl)-ethoxy]-2-thieno[3,2-c]pyridin-6-yl-chromen-4-one oxime, hydrochloride], the melting point is > 250 °C (dec.). In addition, the EC50 in data set [1] is < 1 µM.

Regarding `ON=c1cc(-c2cc3ccsc3cn2)oc2ccccc12` (mixture of isomers) [Example 69, 2-Thieno[2,3-c]pyridin-5-yl-chromen-4-one oxime], the melting point was in the range of 243 to 245 °C. In addition, the EC50 in data set [1] is < 1 µM.

In turn, `ON=c1cc(-c2cc3ccccc3cn2)oc2cc(C#Cc3cccc(O)c3)ccc12` (mixture of isomers) [Example 30, 7-(3-hydroxyphenyl)ethynyl-2-isoquinolin-3-yl-chromen-4-one oxime] had a melting point of 255 to 259 °C. In addition, the EC50 in data set [1] was < 5 µM.

`ON=c1cc(-c2cc3ccccc3cn2)oc2cc(C#Cc3ccncc3)ccc12` (mixture of isomers) [Example 26, 2-isoquinolin-3-yl-7-(pyridin-4-yl)ethynyl-chromen-4-one oxime] returned a melting point of 265 to 270 °C. In addition, the EC50 in data set [1] is < 5 µM.

`Cc1ccc2cnc(-c3cc(=NO)c4ccccc4o3)cc2c1` (mixture of isomers) [Example 15, 2-(6-methyl-isoquinolin-3-yl)-chromen-4-one oxime] gave a melting point of 245 to 247 °C. In addition, in data set [1], the EC50 was < 5 µM.

In the case of `Cl.ON=c1cc(-c2cc3cccn3cn2)oc2ccc(CNCc3ccc(F)cc3)cc12` [Example 144, 6-[(4-Fluoro-benzylamino)-methyl]-2-pyrrolo[1,2-c]pyrimidin-3-yl-chromen-4-one oxime hydrochloride], the melting point was > 210 °C (dec.). Besides, the EC50 in data set [1] is < 5 µM.

For `Cl.ON=c1cc(-c2cc3sccc3cn2)oc2ccc(OCCn3ccnc3)cc12` [Example 129, 6-(2-imidazol-1-yl-ethoxy)2-thieno[3,2-c]pyridin-6-yl-chromen-4-one oxime, hydrochloride], the melting point was in the range of 218 to 220 °C. Moreover, the EC50 in data set [1] is < 1 µM.

`ON=c1cc(-c2ccncn2)oc2ccccc12` [Example 80, 2-Pyrimidin-4-yl-chromen-4-one oxime] displayed a melting point of 208 to 211 °C. The “PAM activity on mGluR4” value in data set [1] (up to 100 μM) was “no PAM activity”.

In turn, `CC1CN(CCOc2ccc3oc(-c4cc5sccc5cn4)cc(=NO)c3c2)CC(C)O1.Cl` (stereo not drawn) [Example 132, 6-[2-(2,6-Dimethyl-morpholin-4-yl)-ethoxy]-2-thieno[3,2-c]pyridin-6-yl-chromen-4-one oxime, hydrochloride] yielded a melting point of 222 to 225 °C. The EC50 in data set [1] was < 1 µM.

For `Cl.ON=c1cc(-c2cc3cccn3cn2)oc2ccc(OCCc3ccncc3)cc12` [Example 136, 6-(2-Pyridin-4-yl-ethoxy)-2-pyrrolo[1,2-c]pyrimidin-3-yl-chromen-4-one oxime, hydrochloride], the melting point is > 270 °C (dec.). In addition, in data set [1], the EC50 was < 5 µM.

For `Cl.O=C(NCCN1CCOCC1)c1ccc2oc(-c3cc4cccn4cn3)cc(=NO)c2c1` [Example 115, 4-(hydroxyimino)-2-pyrrolo[1,2-c]pyrimidin-3-yl-4H-chromene-6-carboxylic acid (2-morpholin-4-yl-ethyl)-amide, hydrochloride], the melting point lay in the range of 230 to 235 °C. Further, in data set [1], the EC50 is < 1 µM.

In the case of `ON=c1cc(-c2cc3ccccc3cn2)oc2cc(C#Cc3ccccn3)ccc12` [Example 24, 2-isoquinolin-3-yl-7-(pyridin-2-yl-ethynyl)-chromen-4-one oxime], the melting point lay in the range of 248 to 251 °C. In data set [1], the EC50 was < 5 µM.

Turning to `ON=c1cc(-c2cn3cccc3cn2)oc2ccccc12` [Example 91, 2-Pyrrolo[1,2-a]pyrazin-3-yl-chromen-4-one oxime], the melting point is > 276 °C. For the same molecule, the EC50 in data set [1] was < 1 µM.

For the molecule `C=CC#Cc1ccc2c(=NO)cc(-c3cc4ccccc4cn3)oc2c1` (mixture of isomers) [Example 55, 7-but-3-en-1-ynyl-2-Isoquinolin-3-yl-chromen-4-one oxime], the melting point was > 210 °C (dec.). For the same molecule, the EC50 in data set [1] is < 5 µM.

Source of the values: patent publication US8962627B2, “Oxime derivatives and their use as allosteric modulators of metabotropic glutamate receptors” (Prestwick Chemical, Inc., priority 2009, dated 2015).
